Measured values reported in patent publication US20110190235A1, “BORON-CONTAINING SMALL MOLECULES AS ANTIPROTOZOAL AGENTS” (Anacor Pharmaceuticals, Inc., priority 2009, published 2011).
In brackets after ≈: the same amount, converted by molar mass. Read-outs that look alike come from different tables or passages of the source.

How the values were obtained:
[1] = system: bloodstream-form trypanosome T. brucei brucei 427 strain; assay: Trypanosoma brucei brucei high-throughput in vitro drug sensitivity assay (resazurin); assay type: cell-based; conditions: Trypanosoma brucei, 72 h
[2] = Kinetic solubility by nephelometric (light scattering) method; assay type: physicochemical; conditions: PBS pH 7.4
[3] = Pharmacokinetic studies in mice (plasma, brain); assay type: in vivo; conditions: for Cmax: normalized to 25 mg/kg (nominal 25 mg/kg); for AUC(0-t) / AUC(0-inf): normalized to 25 mg/kg; for AUC(0-t): read-out: Exposure/trapezoid AUC0-18; for AUC(0-inf): read-out: Exposure/trapezoid AUC0-inf
Procedure: Male CD-1 mice weighing approximately 25 g received the test article (E19 or 82 or E14 or 69) by either intravenous (IV), oral gavage (OG) or intra-peritoneal (IP) routes. Animals in IV group (6-10 animals, 1-2 per time point) received a single bolus injection of approximately 2 mg/kg of the test article. Animals receiving […], or as 4 repeat doses ([…], 1-2 per time point).
All doses were administered as clear colorless solutions in either: 50% (v/v) PEG400:20% (v/v) ethanol:30% (v/v) carboxymethylcellulose (0.5% w/v in sterile water for injection, WFI), or as in situ sodium salts in 5% (m/v) dextrose:2% (v/v) ethanol in DWI. All dose solutions were delivered at 4 mL/kg. Animals were fasted for at least 4 hours before dosing, and for 2 hours after dosing.
Blood samples and brain tissue were sampled from 1 or 2 animals/timepoint/group immediately before dosing and approximately 0.17, 0.5, 1, 2, 3, 4, 6, 8, 12, 18 and 24 hr after dosing for full pharmacokinetic and tissue analysis, or at 0.5, 2 and 4 hours post dosing to assess early-phase CNS disposition.
Bioanalysis for test article in whole blood, plasma or brain tissue was performed by HPLC with tandem mass spectrometry (LC-MSMS). Whole blood and plasma samples were treated with 3 volumes of either acetonitrile or methanol to precipitate plasma proteins. Treated samples were centrifuged and supernatants removed for analysis. Brain tissues were weighed and homogenized mechanically in the presence of 1 volume of phosphate-buffered saline (PBS). The resulting tissue suspensions were then diluted with a further volume of PBS, and then treated in the same manner as whole blood or plasma.
Extracted samples were assayed for test article by means of LC-MSMS employing reversed-phase chromatography coupled to a triple quadrupole mass spectrometer employing electrospray ionization in the positive ion mode. The analytical column was a Phenomenex Luna 3μ C8 50×2 mm, with an online sample purification step performed on a Phenomenex Synergi 4μ Polar RP 50×2 mm column.
Test articles were eluted using a binary mobile phase gradient comprising 5 mM Ammonium Acetate: 0.1% formic acid in either MeOH or H2O.
Non-compartmental analysis of plasma test article concentration versus time was performed in Microsoft Excel to generate pharmacokinetic parameters including: area under the curve (AUC), clearance (as Cl or Cl/F), volume of distribution (Vdss), half-life (t½), and bioavailability (F).

[4] = Pharmacokinetic studies in rats (plasma, brain, CSF); assay type: in vivo; conditions: for half-life: read-out: t½ (converted); for Cmax / AUC(0-t) / AUC(0-inf): normalized to 25 mg/kg; for AUC(0-t): read-out: Exposure/trapezoid AUC0-18; for AUC(0-inf): read-out: Exposure/trapezoid AUC0-inf
Procedure: Male Sprague Dawley rats weighing approximately 200 g received test article (E19 or 82) as a single oral gavage (OG) dose of approximately 25 mg/kg (approximately 10 animals per group).
All doses were administered as clear colorless solutions as in situ sodium salts in 5% (m/v) dextrose:2% (v/v) ethanol in DWI. All dose solutions were delivered at 2 mL/kg. Animals were fasted for at least 4 hours before dosing, and for 2 hours after dosing.
Blood and CSF samples and brain tissue were sampled from 1 animal/timepoint/group immediately before dosing and approximately 0.5, 1, 2, 3, 4, 6, 8, 12, 18 and 24 hr after dosing for full pharmacokinetic (plasma and CSF) and tissue (Brain) analysis.

[5] = male, CD-1, mouse, brain, oral, mice
[6] = male, CD-1, mouse, plasma, oral, mice
[7] = male, Sprague Dawley, rat, CSF, oral, rats
[8] = male, Sprague Dawley, rat, brain, oral, rats
[9] = male, Sprague Dawley, rat, plasma, oral, rats

Compound: CC1(C)OB(O)c2cc(NC(=O)c3ccc(F)cc3C(F)(F)F)ccc21 [compound 82]
- IC50 ([1]; read-out: T. b. brucei IC50 (nM)): 556 nM
- IC50 ([1]; read-out: T.b. brucei IC50 (ug/mL)): 0.204 µg/mL
- Solubility [2]: 25 µM (≈ 9.18 µg/mL)
- CL/F ([3]; male, CD-1, mouse, 25 mg/kg, plasma, oral, mice, read-out: Oral Clearance Cl/F (converted)): 0.196 L/h/kg
- half-life ([3]; male, CD-1, mouse, 25 mg/kg, plasma, oral, mice, read-out: t½ (converted)): 6.9 h
- Cmax [3, 5]: 7.7 µg/mL
- AUC(0-t) [3, 5]: 64.9 µg·h/mL
- AUC(0-inf) [3, 5]: 65.5 µg·h/mL
- Cmax [3, 6]: 9.4 µg/mL
- AUC(0-t) [3, 6]: 108 µg·h/mL
- AUC(0-inf) [3, 6]: 128 µg·h/mL
- brain concentrations relative to the MIC ([3]; mouse and rat, brain (and CSF)): maintains concentrations above the MIC for extended time periods
- fold improved exposure in brain tissue over E19 ([3]; mouse, in vivo): 6-12 fold
- Fold improvement 82 vs. E19: Oral Clearance Cl/F ([3]; mouse, in vivo, po): 1.2 fold
- Fold improvement 82 vs. E19: t½ ([3]; mouse, in vivo, po): 0.4 fold
- fold improved plasma exposure (based on AUC) over E19 ([3]; mouse, in vivo, po): 2-4 fold
- Fold improvement 82 vs. E19: Cmax ([3]; mouse, in vivo, po, brain): 1.6 fold
- Fold improvement 82 vs. E19: Cmax ([3]; mouse, in vivo, po, plasma): 1.2 fold
- dose proportionality of brain exposure ([3]; oral delivery to mice): generally dose-proportional increases
- dose proportionality of plasma exposure ([3]; oral delivery to mice): greater than proportional at doses above 20 mg/kg
- F (% of IV) ([3]; plasma, oral, mice): 45%
- plasma PK when administered to rodents ([3]; rodents, plasma): good exposure (AUC and Cmax), promising bioavailability, prolonged half-life, and low clearance
- half-life ([4]; male, Sprague Dawley, rat, 25 mg/kg, CSF, oral, rats): 8.7 h
- half-life ([4]; male, Sprague Dawley, rat, 25 mg/kg, brain, oral, rats): 9.5 h
- CL/F ([4]; male, Sprague Dawley, rat, 25 mg/kg, plasma, oral, rats, read-out: Oral Clearance Cl/F (converted)): 0.092 L/h/kg
- half-life ([4]; male, Sprague Dawley, rat, 25 mg/kg, plasma, oral, rats): 15.5 h
- Cmax [4, 7]: 1 µg/mL
- AUC(0-t) [4, 7]: 13.6 µg·h/mL
- AUC(0-inf) [4, 7]: 16.8 µg·h/mL
- Cmax [4, 8]: 7.9 µg/mL
- AUC(0-t) [4, 8]: 120 µg·h/mL
- AUC(0-inf) [4, 8]: 152 µg·h/mL
- Cmax [4, 9]: 17 µg/mL
- AUC(0-t) [4, 9]: 272 µg·h/mL
- AUC(0-inf) [4, 9]: 433 µg·h/mL
- time levels in brain and CSF are above the in vitro MIC ([4]; nominal single oral dose of 25 mg/kg to rats): approximately 12 hours
- fold improved exposure in CSF over E19 ([4]; rat, in vivo): approximately 4 fold
- Fold improvement 82 vs. E19: Oral Clearance Cl/F ([4]; rat, in vivo, po): 2.8 fold
- Fold improvement 82 vs. E19: t½ ([4]; rat, in vivo, po, CSF): 2.8 fold
- Fold improvement 82 vs. E19: t½ ([4]; rat, in vivo, po, brain): 3.7 fold
- Fold improvement 82 vs. E19: t½ ([4]; rat, in vivo, po, plasma): 1.9 fold
